{"source": "paper PMC12011184", "about": "“Galanin Reduces Myocardial Ischemia/Reperfusion Injury in Rats with Streptozotocin Diabetes” (Acta Naturae, 2025)", "assay": "Solubility of peptide G in water", "format": "physicochemical", "experimental": "Peptide G was obtained by convergent solid-phase synthesis through condensation of peptide segments, which, in turn, were obtained either on a polymer surface or in solution. Peptide G was purified by preparative HPLC to 98% purity on a Knauer chromatograph (Germany) using a Kromasil 100-10 ODS column (Sweden) (30 × 250 mm). Analytical HPLC was performed on a Kromasil 100-5 C18 column (4.6 × 250 mm) with a 5-μm sorbent particle size. The following eluents were used: 0.1% TFA as buffer A and 80% acetonitrile in buffer A as buffer B. The elution was carried out in a linear buffer B gradient ranging from 20 to 80% for 30 min at a rate of 1 ml/min. Detection was performed at λ = 220 nm (Supplementary materials; Fig. S1). The peptide structure was confirmed by MALDI-TOF/TOF mass spectrometry on an UltrafleXtreme Bruker Daltonics GmbH mass spectrometer (Germany) equipped with a UV laser (Nd) (Supplementary materials, Fig. S2).", "data": [{"smiles": "CC[C@H](C)[C@H](NC(=O)[C@H](C)NC(=O)[C@H](Cc1c[nH]cn1)NC(=O)[C@@H]1CCCN1C(=O)CNC(=O)[C@H](CC(C)C)NC(=O)[C@H](CC(C)C)NC(=O)[C@H](Cc1ccc(O)cc1)NC(=O)CNC(=O)[C@H](C)NC(=O)[C@H](CO)NC(=O)[C@H](CC(N)=O)NC(=O)[C@H](CC(C)C)NC(=O)[C@@H](NC(=O)[C@H](Cc1c[nH]c2ccccc12)NC(=O)CN)[C@@H](C)O)C(=O)N[C@@H](CC(=O)O)C(=O)N[C@@H](CC(N)=O)C(=O)N[C@@H](Cc1c[nH]cn1)C(=O)N[C@@H](CCCNC(=N)N)C(=O)N[C@@H](CO)C(=O)N[C@@H](Cc1ccccc1)C(=O)N[C@@H](CO)C(=O)N[C@@H](CC(=O)O)C(=O)N[C@@H](CCCCN)C(=O)N[C@@H](Cc1c[nH]cn1)C(=O)NCC(=O)N[C@@H](CC(C)C)C(=O)N[C@H](C(N)=O)[C@@H](C)O", "note": "[G, galanin]", "values": [{"measurement": "solubility", "value": "> 40", "unit": "mg/mL"}]}]}
